pIC50: −log10 of the molar value.
How the values were obtained:
[1] = molecular target: PDGFR (Homo sapiens, UniProt P09619); assay: PDGF-R ELISA (cellular kinase assay); assay type: cell-based; conditions: 50% inhibition of PTK activity over control
Experimental: The cellular/catalytic assays described herein are performed in an ELISA format. The general procedure is a follows: a compound is introduced to cells expressing the test kinase, either naturally or recombinantly, for some period of time after which, if the test kinase is a receptor, a ligand known to activate the receptor's activity is added. The cells are lysed and the lysate is transferred to the wells of an ELISA plate previously coated with a specific antibody recognizing the substrate of the enzymatic phosphorylation reaction. Non-substrate components of the cell lysate are washed away and the amount of phosphorylation on the substrate is detected with an antibody specifically recognizing phosphotyrosine compared with control cells that were not contacted with a test compound.
All cell culture media, glutamine, and fetal bovine serum can be purchased from Gibco Life Technologies (Grand Island, N.Y.) unless otherwise specified. All cells are grown in a humid atmosphere of 90-95% air and 5-10% CO2 at 37° C. All cell lines are routinely subcultured twice a week and are negative for mycoplasma as determined by the Mycotect method (Gibco).
For ELISA assays, cells (U1242, obtained from Joseph Schlessinger, NYU) are grown to 80-90% confluency in growth medium (MEM with 10% FBS, NEAA, 1 mM NaPyr and 2 mM GLN) and seeded in 96-well tissue culture plates in 0.5% serum at 25,000 to 30,000 cells per well. After overnight incubation in 0.5% serum-containing medium, cells are changed to serum-free medium and treated with test compound for 2 hr in a 5% CO2, 37° C. incubator. Cells are then stimulated with ligand for 5-10 minute followed by lysis with HNTG (20 mM Hepes, 150 mM NaCl, 10% glycerol, 5 mM EDTA, 5 mM Na3VO4, 0.2% Triton X-100, and 2 mM NaPyr). Cell lysates (0.5 mg/well in PBS) are transferred to ELISA plates previously coated with receptor-specific antibody and which had been blocked with 5% milk in TBST (50 mM Tris-HCl pH 7.2, 150 mM NaCl and 0.1% Triton X-100) at room temperature for 30 min. Lysates are incubated with shaking for 1 hour at room temperature. The plates are washed with TBST four times and then incubated with polyclonal anti-phosphotyrosine antibody at room temperature for 30 minutes. Excess anti-phosphotyrosine antibody is removed by rinsing the plate with TBST four times. Goat anti-rabbit IgG antibody is added to the ELISA plate for 30 min at room temperature followed by rinsing with TBST four more times. ABTS (100 mM citric acid, 250 mM Na2HPO4 and 0.5 mg/mL 2,2′-azino-bis(3-ethylbenzthiazoline-6-sulfonic acid)) plus H2O2 (1.2 mL 30% H2O2 to 10 mL ABTS) is added to the ELISA plates to start color development. Absorbance at 410 nm with a reference wavelength of 630 nm is recorded about 15 to 30 min after ABTS addition.

[2] = molecular target: HER2 Kinase (Homo sapiens, UniProt P04626); assay: HER-2 ELISA: EGF receptor-HER2 chimeric receptor assay in whole cells; assay type: cell-based; conditions: 50% inhibition of PTK activity over control
HER2 Kinase, sequence (P00533 25-645): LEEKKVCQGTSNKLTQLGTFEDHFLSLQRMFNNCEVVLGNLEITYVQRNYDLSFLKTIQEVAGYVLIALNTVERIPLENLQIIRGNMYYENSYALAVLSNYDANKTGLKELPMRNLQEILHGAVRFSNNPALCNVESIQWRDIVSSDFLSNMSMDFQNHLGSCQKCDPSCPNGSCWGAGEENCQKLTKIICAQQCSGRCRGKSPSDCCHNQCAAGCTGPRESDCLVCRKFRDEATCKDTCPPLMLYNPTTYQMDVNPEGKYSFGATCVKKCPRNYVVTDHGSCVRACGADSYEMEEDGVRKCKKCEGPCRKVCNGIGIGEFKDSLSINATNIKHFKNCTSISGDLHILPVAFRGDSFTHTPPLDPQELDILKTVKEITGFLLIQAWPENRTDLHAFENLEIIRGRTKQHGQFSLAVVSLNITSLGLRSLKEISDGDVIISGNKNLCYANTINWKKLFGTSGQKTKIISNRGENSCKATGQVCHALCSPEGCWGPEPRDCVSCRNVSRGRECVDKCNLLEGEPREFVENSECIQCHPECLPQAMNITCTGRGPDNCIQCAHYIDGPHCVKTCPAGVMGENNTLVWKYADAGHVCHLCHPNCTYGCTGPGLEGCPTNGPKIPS
HER2 Kinase, sequence (P04626 676-1255): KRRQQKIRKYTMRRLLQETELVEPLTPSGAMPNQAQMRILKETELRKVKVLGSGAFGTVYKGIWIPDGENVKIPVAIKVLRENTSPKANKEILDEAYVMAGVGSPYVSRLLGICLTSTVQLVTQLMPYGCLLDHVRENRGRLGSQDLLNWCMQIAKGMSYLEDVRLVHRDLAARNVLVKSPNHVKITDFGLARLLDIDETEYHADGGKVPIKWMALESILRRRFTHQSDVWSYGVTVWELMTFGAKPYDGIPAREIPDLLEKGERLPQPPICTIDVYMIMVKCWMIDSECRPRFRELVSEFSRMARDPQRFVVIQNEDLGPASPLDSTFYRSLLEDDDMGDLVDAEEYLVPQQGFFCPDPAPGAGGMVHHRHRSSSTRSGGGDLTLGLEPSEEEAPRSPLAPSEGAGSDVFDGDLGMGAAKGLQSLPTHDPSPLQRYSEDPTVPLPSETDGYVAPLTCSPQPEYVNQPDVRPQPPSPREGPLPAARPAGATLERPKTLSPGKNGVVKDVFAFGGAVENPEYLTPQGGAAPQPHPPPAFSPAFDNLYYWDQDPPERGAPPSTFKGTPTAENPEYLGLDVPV
Experimental: The cellular/catalytic assays described herein are performed in an ELISA format. […] The cells are lysed and the lysate is transferred to the wells of an ELISA plate previously coated with a specific antibody recognizing the substrate of the enzymatic phosphorylation reaction. Non-substrate components of the cell lysate are washed away and the amount of phosphorylation on the substrate is detected with an antibody specifically recognizing phosphotyrosine compared with control cells that were not contacted with a test compound. HER-2 ELISA […] EGF Receptor-HER2 Chimeric Receptor Assay in Whole Cells. HER2 kinase activity in whole EGFR-NIH3T3 cells are measured as described below: Materials and Reagents. The following materials and reagents can be used to conduct the assay: a. EGF: stock concentration: 16.5 ILM; EGF 201, TOYOBO, Co., Ltd. Japan. b. 05-101 (UBI) (a monoclonal antibody recognizing an EGFR extracellular domain). c. Anti-phosphotyrosine antibody (anti-Ptyr) (polyclonal)(see, Fendley, et al., supra). d. Detection antibody: Goat anti-rabbit lgG horse radish peroxidase conjugate, TAGO, Inc., Burlingame, Calif. e. TBST buffer: [table] f. HNTG 5×stock: [table] g. ABTS stock: [table] h. Stock reagents of: [table] Procedure. The following protocol is used: A. Pre-coat ELISA Plate […] Coat ELISA plates (Corning, 96 well, Cat. #25805-96) with 05-101 antibody at 0.5 µg per well in PBS, 100 μL final volume/well, and store overnight at 4° C. Coated plates are good for up to 10 days when stored at 4° C. 2. On day of use, remove coating buffer and replace with 100 μL blocking buffer (5% Carnation Instant Non-Fat Dry Milk in PBS). Incubate the plate, shaking, at room temperature (about 23° C. to 25° C.) for 30 minutes. Just prior to use, remove blocking buffer and wash plate 4 times with TBST buffer. B. Seeding Cells […] An NIH3T3 cell line overexpressing a chimeric receptor containing the EGFR extracellular domain and intracellular HER2 kinase domain can be used for this assay. 2. Choose dishes having 80-90% confluence for the experiment. […]

PDGFR, sequence (P09619 33-1106): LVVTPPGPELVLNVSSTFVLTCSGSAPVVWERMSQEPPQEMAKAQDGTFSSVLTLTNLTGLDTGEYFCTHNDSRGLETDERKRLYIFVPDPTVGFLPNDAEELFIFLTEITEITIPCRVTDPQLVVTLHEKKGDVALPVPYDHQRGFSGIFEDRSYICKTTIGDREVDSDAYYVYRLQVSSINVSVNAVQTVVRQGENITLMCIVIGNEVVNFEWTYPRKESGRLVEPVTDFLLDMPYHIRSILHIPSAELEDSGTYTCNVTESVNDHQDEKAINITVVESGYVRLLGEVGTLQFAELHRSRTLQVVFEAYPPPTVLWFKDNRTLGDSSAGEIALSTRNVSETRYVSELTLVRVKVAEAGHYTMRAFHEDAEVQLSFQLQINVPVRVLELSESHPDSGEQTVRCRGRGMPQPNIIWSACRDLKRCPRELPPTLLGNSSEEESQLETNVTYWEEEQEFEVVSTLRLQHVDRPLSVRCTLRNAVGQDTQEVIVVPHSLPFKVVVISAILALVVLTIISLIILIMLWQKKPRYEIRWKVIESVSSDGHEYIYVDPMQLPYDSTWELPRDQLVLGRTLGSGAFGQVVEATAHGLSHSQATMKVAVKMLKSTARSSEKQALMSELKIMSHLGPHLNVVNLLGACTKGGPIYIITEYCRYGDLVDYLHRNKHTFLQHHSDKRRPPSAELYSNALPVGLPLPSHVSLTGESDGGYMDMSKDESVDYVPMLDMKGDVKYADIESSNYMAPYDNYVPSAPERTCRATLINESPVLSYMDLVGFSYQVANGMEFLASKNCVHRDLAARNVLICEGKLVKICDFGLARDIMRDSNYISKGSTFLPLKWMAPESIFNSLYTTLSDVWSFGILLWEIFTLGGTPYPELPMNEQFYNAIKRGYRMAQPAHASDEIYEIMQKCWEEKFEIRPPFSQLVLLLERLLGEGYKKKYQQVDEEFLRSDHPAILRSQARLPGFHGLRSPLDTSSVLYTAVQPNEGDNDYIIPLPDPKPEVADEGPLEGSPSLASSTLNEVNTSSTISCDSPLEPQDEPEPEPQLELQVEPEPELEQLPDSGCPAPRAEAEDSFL

Structure (SMILES) | pIC50 [1] | pIC50 [2]
COC(=O)CCc1c[nH]c(C=C2C(=O)Nc3cc(OC)c(OC)cc32)c1C [3-[4-(2-methoxycarbonylethyl)-3-methylpyrrol-2-methylidenyl]-5,6-dimethoxy-2-indolinone] | 4.65 | < 4.30
CCOC(=O)c1c[nH]c(C=C2C(=O)Nc3ccccc32)c1C [3-(4-ethoxycarbonyl-3-methylpyrrol-2-methylidenyl)-2-indolinone] | < 4.00 | < 4.00
CCOC(=O)CCc1c(C(=O)OCC)[nH]c(C=C2C(=O)Nc3ccccc32)c1CC(=O)OCC [3-[2-ethoxycarbonyl-3-(2-ethoxycarbonylethyl)-4-ethoxycarbonylmethyl)pyrrol-5-methylidenyl)-2-indolinone] | < 5.00 | < 5.00
CCOC(=O)c1[nH]c(C=C2C(=O)Nc3ccccc32)c(C(C)=O)c1C [3-(4-acetyl-2-ethoxycarbonyl-3-methylpyrrol-5-methylidenyl)-2-indolinone] | < 5.00 | 

From US6486185B1, “3-heteroarylidene-2-indolinone protein kinase inhibitors” (Sugen, Inc., priority 1997, dated 2002)
